# Bridge positions count the residues as written; N and C are the ends. Ends that are not written are not given here. Peptide text beside a SMILES is read from it. I, II: the chains in the order shown.
# Key:
# TAPL [1] = molecular target: T1, TAPL (Homo sapiens, UniProt Q9NP78); test: NTP hydrolysis by TAPL, malachite green based assay; assay type: biochemical
# T1 construct: Human coreTAPL (Q9NP78 UniProt, amino acid 143–766) fused C-terminally to mVenus; made in house; host or cells: Pichia pastoris SMD1168-His+
# T1 sequence (Q9NP78 143-766): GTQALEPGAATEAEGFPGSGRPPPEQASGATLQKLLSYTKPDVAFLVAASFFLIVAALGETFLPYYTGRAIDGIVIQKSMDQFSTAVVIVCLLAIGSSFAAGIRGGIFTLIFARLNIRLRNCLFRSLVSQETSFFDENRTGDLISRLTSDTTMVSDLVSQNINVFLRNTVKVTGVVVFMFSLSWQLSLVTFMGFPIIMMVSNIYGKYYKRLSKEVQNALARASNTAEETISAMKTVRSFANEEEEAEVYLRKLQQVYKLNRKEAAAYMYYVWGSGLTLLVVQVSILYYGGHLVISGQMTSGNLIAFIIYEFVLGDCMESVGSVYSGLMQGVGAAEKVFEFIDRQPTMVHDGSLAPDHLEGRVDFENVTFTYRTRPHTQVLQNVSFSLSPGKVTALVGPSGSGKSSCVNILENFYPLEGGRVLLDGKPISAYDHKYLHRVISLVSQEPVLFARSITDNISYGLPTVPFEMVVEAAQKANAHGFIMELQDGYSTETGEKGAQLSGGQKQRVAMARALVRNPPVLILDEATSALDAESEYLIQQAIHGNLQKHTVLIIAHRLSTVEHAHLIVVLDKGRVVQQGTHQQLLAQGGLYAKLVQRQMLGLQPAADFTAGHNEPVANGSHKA
# Protocol: Kinetics were recorded under steady-state conditions in which peptide accumulation in proteoliposomes is far below saturation (Figs S2,S5).
# ATP hydrolysis was determined by malachite green based assay in the absence or presence of 100 µM peptide (filled bar) or ortho-vanadate (500 µM, white bar) (A) or with increasing peptide concentrations (B). Hydrolysis rates of 16-mer and 18-mer peptide were fitted with equation 6. IC50 values, Hill coefficients and kcat are depicted in Table 1. […] All experiments were performed in triplicates, error bars indicate SD.
# The reaction was started by the addition of NTP. Background and autohydrolysis were determined with 500 µM ortho-vanadate or in the absence of protein, respectively. Hydrolysis was stopped by the addition of 20 mM H2SO4, supplemented with malachite green solution (3 mM malachite green, 0.2% (v/v) Tween 20, 1.5% (w/v) ammoniummolybdate) and absorption was detected after 10 min incubation at room temperature at 620 nm using a microplate reader (CLARIOstar, BMG LABTECH). IC50 values for peptides were determined by6 v=vmin+vmax−vmin/1+10^(LOGIC50−[I])⋅n where v represents the peptide inhibitor [I] dependent hydrolysis rate, vmax the maximal hydrolysis rate in the absence of peptide, vmin the minimal hydrolysis rate at saturating peptide concentrations and n the Hill slope. IC50 represents the half maximal inhibitory peptide concentration.
# TAPL [2] = molecular target: T1, TAPL; test: Peptide transport into TAPL proteoliposomes; assay type: biochemical; settings: 15 min, 37 °C
# Protocol: (A) Proteoliposomes (0.5 mg/ml lipids) were incubated with 10 µM of 9-mer^FL peptide and 3 mM ATP, 3 mM ADP, without any nucleotide (−) or with 3 mM ATP in the presence of ortho-vanadate (Vi, 500 µM). […] […] Transport was performed in triplicates with error bars indicating SD.
# CoreTAPL fused C-terminally to mVenus was produced in P. pastoris by large scale expression in a 7.5 liter Labfors4 reactor (Infors HT, Einsbach, Germany) by fed batch method and cell pellets were stored at −80 °C[14],[44]. Core[…] fused C-terminally to mVenus was produced in P. pastoris in Erlenmeyer flasks. TmrAB from T. thermophilus was expressed in Escherichia coli and cell pellets were stored at −80 °C[30]. CoreTAPL and TmrAB were purified and reconstituted (40:1 (wt/wt) lipid to protein) as described into unilamellar liposomes composed of E. coli polar lipids and DOPC (7:3 (wt/wt); Avanti Polar Lipids), which were ultrasonicated, five times frozen and thawed and extruded through a 400 nm polycarbonate filter (Avestin, Mannheim, Germany)[13],[14],[30]. Proteoliposomes were snap frozen in liquid nitrogen and stored at −80 °C. […] Concentration of coreTAPL and core[…] was determined by specific absorption of mVenus (ε515 = 45.950 M^−1cm^−1). For calculation of TmrAB concentration ε280 = 159.630 M^−1cm^−1 was applied.
# Pdr5 = settings: cited from earlier work
# Description: Both nucleotides show the same Km and kcat values in respect of NTP hydrolysis. […] NTP dependent transport was found also for other ABC transporters. […] The full-length ABC transport Pdr5 from yeast hydrolyzes GTP and even UTP, but ...
# TAPL [3] = molecular target: T1, TAPL; test: NTP dependent peptide transport by TAPL; assay type: biochemical; settings: 37 °C
# Protocol: Subsequently, we performed Michaelis-Menten kinetics of 9-mer peptide (100 µM) transport using increasing ATP and GTP concentrations. […] Additionally, we quantified the nucleotide hydrolysis kinetics of ATP and GTP in the presence and absence of the 9-mer peptide. […] Moreover, we assume a subtle difference in the cross-talk between the nucleotide binding domain and the transmembrane domain, which is caused by the type of purine base.
# (A) NTP dependent peptide transport was performed with 9-mer^FL peptide (100 µM). (B) NTP hydrolysis was analyzed in the presence of 9-mer peptide (100 µM) by radioactive based assay. Experiments were performed in triplicates, error bars indicate SD.
# MRP1 = settings: cited from earlier work
# Description: Other ABC transporters like P-glycoprotein have a biphasic substrate dependent ATPase activity. […] Basal ATPase activity of MRP1 is 3-fold stimulated by its substrate leucotriene C4, which forms contacts to both halfs o ...
molecule,measurement,setting,value
"CC(C)C[C@H](NC(=O)[C@H](CCC(=O)O)NC(=O)[C@@H](NC(=O)[C@H](CO)NC(=O)[C@H](CCCCNC(=O)[C@H](CCCCN)NC(=O)[C@H](CCCCN)NC(=O)[C@H](CCCCN)NC(=O)[C@H](CCCCN)NC(=O)[C@H](CCCCN)NC(=O)[C@H](CCCCN)NC(=O)[C@H](CCCCN)NC(=O)[C@@H](N)CCCCN)NC(=O)[C@H](CS)NC(=O)[C@H](Cc1ccc(O)cc1)NC(=O)[C@@H](N)CCCNC(=N)N)[C@@H](C)O)C(=O)O [16-mer, RYCK(K8)STEL] (I: H-KKKKKKKK / II: H-RYCKSTEL-OH; amide I:C-II:4; N-terminus assumed)",ATP per translocated peptide,TAPL [1]; ATP hydrolysis at saturating peptide divided by peptide transport turnover,100 ATP per translocated peptide
same,Hill slope of ATP hydrolysis inhibition,"TAPL [1]; proteoliposomes, 3 mM ATP, 15 min, 37 °C, malachite green, unlabeled peptides",−2.09 ± 0.73
same,kcat(ATP) rate constant of ATP hydrolysis,"TAPL [1]; under saturating peptide concentration, 3 mM ATP, 15 min, 37 °C, malachite green, unlabeled peptides",0.367 ± 0.067 s⁻¹
same,kcat(Pep) turnover number of peptide transport,"TAPL [2]; proteoliposomes, 3 mM ATP, pH 7.5, fluorescein labeled (FL) peptides used, triplicates, SD, listed as 16-mer^FL",0.00417 s⁻¹
Nc1ncnc2c1ncn2[C@@H]1O[C@H](COP(=O)(O)OP(=O)(O)OP(=O)(O)O)[C@@H](O)[C@H]1O [ATP],nucleotide hydrolysis by Pdr5 (in words),"Pdr5; GTP, UTP, ATP",highest efficiency
same,"fold turnover number of peptide transport, ATP over GTP","TAPL [3]; ATP vs GTP, 9-mer peptide (100 µM)",6 fold
Clc1ccccc1C(c1ccccc1)(c1ccccc1)n1ccnc1 [clotrimazole],effect on Pdr5 ATPase activity (in words),Pdr5; ATP hydrolysis,inhibited
same,effect on Pdr5 GTP and UTP hydrolysis (in words),Pdr5; GTP and UTP hydrolysis,not affected
CCCCC/C=C\C\C=C/C=C/C=C/[C@@H](SC[C@H](NC(=O)CC[C@H](N)C(=O)O)C(=O)NCC(=O)O)[C@@H](O)CCCC(=O)O [leucotriene C4],fold stimulation of basal ATPase activity,MRP1,3 fold
[O]=[V]([O-])([O-])[O-] [ortho-vanadate],effect on basal ATP hydrolysis (in words),"TAPL [1]; 3 mM ATP, 15 min, 37 °C, malachite green, peptide up to 100 µM or ortho-vanadate 500 µM",blocked
same,effect on GTP hydrolysis (in words),"TAPL [1]; 3 mM GTP, 15 min, 37 °C, malachite green, 9-mer peptide 100 µM or ortho-vanadate 500 µM",inhibited
same,inhibition of ATP dependent peptide translocation (in words),"TAPL [2]; ortho-vanadate 500 µM, 3 mM ATP, 10 µM 9-mer^FL",specifically inhibited
same,inhibition of GTP dependent peptide transport (in words),"TAPL [3]; ortho-vanadate 500 µM, 3 mM GTP, 10 µM 9-mer^FL, 15 min",inhibited
"RRYC^FluoresceinKSTEL [9-mer^FL, fluorescein labeled 9-mer peptide]",Km,"TAPL [2]; read-out: Km(Pep) of 9-mer transport with GTP, 3 mM GTP, proteoliposomes, triplicates, SD",4.4 ± 0.8 µM
RRYQKSTELRRYQKSTEL [18-mer],reduction of ATP hydrolysis,"TAPL [1]; 100 µM peptide, 3 mM ATP, 15 min, 37 °C, vs absence of peptide",50%

# From PMC6695453, “Peptide translocation by the lysosomal ABC transporter TAPL is regulated by coupling efficiency and activation energy” (Scientific Reports, 2019)
